The values below come from ChEMBL document CHEMBL5291721, “A preclinical secondary pharmacology resource illuminates target-adverse drug reaction associations of marketed drugs” (Nat Commun, 2023).

Broadly, the AC50 is the concentration at which the activity in the assay is half-maximal. Read a high AC50 as activity only at high concentration.

Test [1] concerns the target T1, Muscarinic acetylcholine receptor M1 (Homo sapiens, UniProt P11229).
T1 sequence (P11229 whole entry): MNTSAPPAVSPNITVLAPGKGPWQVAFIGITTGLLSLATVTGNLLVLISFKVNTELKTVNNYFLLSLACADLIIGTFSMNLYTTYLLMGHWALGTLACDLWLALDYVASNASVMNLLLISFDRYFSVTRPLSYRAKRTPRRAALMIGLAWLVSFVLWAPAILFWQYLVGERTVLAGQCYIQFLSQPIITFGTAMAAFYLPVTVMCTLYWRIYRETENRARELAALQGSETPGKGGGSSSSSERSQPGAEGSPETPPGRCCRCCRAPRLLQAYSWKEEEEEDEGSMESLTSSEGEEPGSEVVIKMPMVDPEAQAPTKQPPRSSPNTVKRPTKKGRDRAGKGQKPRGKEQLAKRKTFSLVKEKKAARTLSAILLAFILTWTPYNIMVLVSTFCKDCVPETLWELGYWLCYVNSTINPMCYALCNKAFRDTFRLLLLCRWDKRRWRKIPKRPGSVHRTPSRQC
Format: functional, cell-based.

Test [2] has as its target T2, Muscarinic acetylcholine receptor M5 (Homo sapiens, UniProt P08912).
T2 sequence (P08912 whole entry): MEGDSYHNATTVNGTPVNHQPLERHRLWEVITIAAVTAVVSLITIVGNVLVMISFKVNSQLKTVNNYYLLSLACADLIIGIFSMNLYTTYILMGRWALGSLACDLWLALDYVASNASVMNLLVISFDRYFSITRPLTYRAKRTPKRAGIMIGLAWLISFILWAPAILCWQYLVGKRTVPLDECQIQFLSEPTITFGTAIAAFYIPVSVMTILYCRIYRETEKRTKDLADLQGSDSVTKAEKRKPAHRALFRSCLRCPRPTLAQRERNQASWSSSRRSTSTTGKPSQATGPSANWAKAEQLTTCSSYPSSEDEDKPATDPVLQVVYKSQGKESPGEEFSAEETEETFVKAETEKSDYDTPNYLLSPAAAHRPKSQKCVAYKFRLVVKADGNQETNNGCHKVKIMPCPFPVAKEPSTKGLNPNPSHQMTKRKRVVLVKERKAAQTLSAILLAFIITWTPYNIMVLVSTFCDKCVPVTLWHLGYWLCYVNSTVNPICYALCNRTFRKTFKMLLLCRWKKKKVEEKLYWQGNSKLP

Test [3] has as its target T1, Muscarinic acetylcholine receptor M1. In kind it is functional, cell-based. This is another data set of the same source.
Note: assay procedure not described here.

Compound `C[N@+]1(CCF)[C@@H]2CC[C@H]1C[C@@H](OC(=O)C(O)(c1ccccc1)c1ccccc1)C2` yielded an AC50 in test [1] of over 30 µM. `Cn1c(=O)cc(N2CCC[C@@H](N)C2)n(Cc2ccccc2C#N)c1=O` [ALOGLIPTIN]: the AC50 in test [2] was over 10 µM. In the case of `Nc1c2ccccc2nc2ccccc12` [AMINACRINE], in test [3], the AC50 came out at 20.4 µM.
